Molecular target: T1, Nucleoprotein (Human respiratory syncytial virus A (strain A2), UniProt P03418)
T1 sequence (P03418 whole entry): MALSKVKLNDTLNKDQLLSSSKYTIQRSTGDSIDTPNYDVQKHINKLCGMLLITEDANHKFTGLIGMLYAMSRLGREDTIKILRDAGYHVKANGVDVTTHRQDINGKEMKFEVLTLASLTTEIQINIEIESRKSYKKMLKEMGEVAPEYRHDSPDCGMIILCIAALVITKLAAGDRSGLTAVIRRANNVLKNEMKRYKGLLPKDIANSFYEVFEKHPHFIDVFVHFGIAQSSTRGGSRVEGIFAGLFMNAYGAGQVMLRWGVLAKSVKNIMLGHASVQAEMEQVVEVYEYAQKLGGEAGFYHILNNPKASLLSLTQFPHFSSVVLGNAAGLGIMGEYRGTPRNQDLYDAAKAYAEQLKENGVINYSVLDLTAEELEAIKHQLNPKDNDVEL
Experiment: Not found
Text: Not found

Compound	EC50 [nM]
O=C(N[C@H]1N=C(c2ccccc2)c2cccc(F)c2NC1=O)c1c(-c2ccccc2F)nn2c1OCC(C1CC1)C2 (stereo not given in full) [US20230270751, Example 13]	28
O=C(N[C@H]1N=C(c2ccccc2)c2cccc(F)c2NC1=O)c1c(-c2ccccc2F)nn2c1OCC(CN1CCOCC1)C2 (stereo not given in full) [US20230270751, Example 173]	91
CN(C(=O)OC(C)(C)C)C1COc2c(C(=O)N[C@H]3N=C(c4ccccc4)c4cccc(F)c4NC3=O)c(-c3ccccc3F)nn2C1 (stereo not given in full) [US20230270751, Example 107]	93
O=C(N[C@H]1N=C(c2ccccc2)c2cccc(F)c2NC1=O)c1c(-c2ccccc2F)nn2c1OCC(CN1CCCC1)C2 (stereo not given in full) [US20230270751, Example 182]	78
O=C(N[C@H]1N=C(c2ccccc2)c2cccc(F)c2NC1=O)c1c(-c2c(F)cccc2F)nn2c1OCCC2 [US20230270751, Example 196]	25

Reference: BindingDB's records for patent US20230270751 (Reviral, 2023)
